From US10208067B2, “Compounds for treating spinal muscular atrophy” (Hoffmann-La Roche Inc., priority 2015, dated 2019)
Like-named read-outs stand apart in the source and are kept apart here.

Legend:
[1] = system: full length SMN2 minigene mRNA (HEK293H cells stably transfected with SMN2-A minigene); assay: RT-qPCR assay for SMN2 minigene pre-mRNA splicing in cultured cells; format: cell-based; conditions: Homo sapiens, HEK293-H, 24 hours
[2] = system: SMN protein in SMA patient fibroblast cells (GM03813); assay: SMN protein assay (HTRF) in cultured cells; format: cell-based; conditions: Homo sapiens, SMA Type 1 patient fibroblasts, 48 hours; for EC (1.5-fold): concentration producing 1.5 times SMN protein vs vehicle, read-out: EC1.5x SMN protein; for maximal fold induction: relative to vehicle control, read-out: max. fold increase of SMN protein
Experimental: The SMN HTRF (homogeneous time resolved fluorescence) assay is used to quantify the level of SMN protein in SMA patient fibroblast cells treated with test compounds. Materials used and respective sources are listed below in Table 4.
Cells are thawed and cultured in DMEM-10% FBS for 72 hours. Cells are trypsinized, counted and re-suspended to a concentration of 25,000 cells/mL in DMEM-10% FBS. The cell suspensions are plated at 5,000 cells per well in a 96 well microtiter plate and incubated for […]. […] 1 μL of test compound solution is transferred to cell-containing wells and cells are incubated for 48 hours in a cell culture incubator (37° C., 5% CO2, 100% relative humidity). Triplicate samples are set up for each test compound concentration. After 48 hours, the supernatant is removed from the wells and 25 μL of the RIPA lysis buffer, containing protease inhibitors, is added to the wells and incubated with shaking at room temperature for 1 hour. 25 μL of the diluent is added and then 35 μL of the resulting lysate is transferred to a 384-well plate, where each well contains 5 μL of the antibody solution (1:100 dilution of anti-SMN d2 and anti-SMN cryptate in SMN reconstitution buffer). The plate is centrifuged for 1 minute to bring the solution to the bottom of the wells, then incubated overnight at room temperature. Fluorescence for each well of the plate at 665 nm and 620 nm is measured on an EnVision multilabel plate reader (Perkin-Elmer).
The normalized fluorescence signal is calculated for each sample, Blank and vehicle control well by dividing the signal at 665 nm by the signal at 620 nm. Normalizing the signal accounts for possible fluorescence quenching due to the matrix effect of the lysate. The ΔF value (a measurement of SMN protein abundance as a percent value) for each sample well is calculated by subtracting the normalized average fluorescence for the Blank control wells from the normalized fluorescence for each sample well, then dividing this difference by the normalized average fluorescence for the Blank control wells and multiplying the resulting value by 100. The ΔF value for each sample well represents the SMN protein abundance from test compound-treated samples. The ΔF value for each sample well is divided by the ΔF value for the vehicle control wells to calculate the fold increase in SMN protein abundance relative to the vehicle control. Table 5 provides EC1-5× concentrations for SMN protein expression that was obtained from the 7-point concentration data generated according to the above procedure for particular compounds of the present invention.
Table 6 provides the maximum fold increase of SMN protein that was obtained from the 7-point concentration data generated according to the above procedure for particular compounds of the present invention

[3] = concentration increasing full length SMN2 minigene mRNA 1.5-fold vs vehicle, read-out: EC1.5x minigene
[4] = Table 3 (title: production of full length SMN2 minigene mRNA), read-out: EC1.5x SMN protein

Row | Structure (SMILES) | EC (1.5-fold) [1, 3] [µM] | EC (1.5-fold) [2] [µM] | maximal fold induction [2] | EC (1.5-fold) [1, 4] [µM]
1 | Cc1nc2ncc(-c3cc(=O)n4cc(N5C[C@@H](C)N[C@@H](C)C5)ccc4n3)cn2n1 [Example 2, 7-[(3R,5S)-3,5-dimethylpiperazin-1-yl]-2-(2-methyl-[1,2,4]triazolo[1,5-a]pyrimidin-6-yl)pyrido[1,2-a]pyrimidin-4-one] | 0.067 | 0.508 | 1.93 | –
2 | Cc1nc2ccc(-c3cc(=O)n4cc(N5C[C@@H]6C[C@H]7CNC[C@]76C5)ccc4n3)nn2n1 [Example 47, 7-((3aR,4aR,7aS)-hexahydro-1H-cyclobuta[1,2-c:1,4-c′]dipyrrol-2(3H)-yl)-2-(2-methyl-[1,2,4]triazolo[1,5-b]pyridazin-6-yl)-4H-pyrido[1,2-a]pyrimidin-4-one] | – | 0.0249 | 1.87 | 0.0041
3 | Cc1nc2ncc(-c3cc(=O)n4cc(N5CCC(CN6CCCC6)CC5)ccc4n3)cn2n1 [Example 12, 7-[4-(pyrrolidin-1-ylmethyl)-1-piperidyl]-2-(2-methyl-[1,2,4]triazolo[1,5-a]pyrimidin-6-yl)-pyrido[1,2-a]pyrimidin-4-one] | 0.161 | > 31.6 | 1.36 | –
4 | Cc1nc2ncc(-c3cc(=O)n4cc(N5C[C@H](C)N[C@@H](C)C5)ccc4n3)cn2n1 [Example 11, 7-[(3S,5S)-3,5-dimethylpiperazin-1-yl]-2-(2-methyl-[1,2,4]triazolo[1,5-a]pyrimidin-6-yl)pyrido[1,2-a]pyrimidin-4-one] | < 0.03 | 0.175 | 1.77 | –
5 | Cc1nc2ncc(-c3cc(=O)n4cc(N5CCN(C)CC5)ccc4n3)cn2n1 [Example 23, 7-(4-methylpiperazin-1-yl)-2-(2-methyl-[1,2,4]triazolo[1,5-a]pyrimidin-6-yl)pyrido[1,2-a]pyrimidin-4-one] | – | 0.477 | 1.68 | 0.0952
6 | Cc1nc2ncc(-c3cc(=O)n4cc(N5CC6CN(C)CC6C5)ccc4n3)cn2n1 (stereo not drawn) [Example 8] | 0.0659 | 0.313 | 1.85 | –
7 | Cc1nc2ccc(-c3cc(=O)n4cc(N5C[C@@H](C)N[C@@H](C)C5)ccc4n3)nn2n1 [Example 22, 7-[(3R,5S)-3,5-dimethylpiperazin-1-yl]-2-(2-methyl-[1,2,4]triazolo[1,5-b]pyridazin-6-yl)pyrido[1,2-a]pyrimidin-4-one] | – | 0.228 | 1.76 | 0.0434
8 | Cc1nc2ccc(-c3cc(=O)n4cc(N5CCN(C)CC5)cc(C)c4n3)nn2n1 [Example 27, 9-methyl-7-(4-methylpiperazin-1-yl)-2-(2-methyl-[1,2,4]triazolo[1,5-b]pyridazin-6-yl)pyrido[1,2-a]pyrimidin-4-one] | – | 0.0347 | 1.74 | 0.014
9 | Cc1nc2ccc(-c3cc(=O)n4cc(N5C[C@H](C)N[C@@H](C)C5)cc(C)c4n3)nn2n1 [Example 37, 7-[(3S,5S)-3,5-dimethylpiperazin-1-yl]-9-methyl-2-(2-methyl-[1,2,4]triazolo[1,5-b]pyridazin-6-yl)pyrido[1,2-a]pyrimidin-4-one] | – | 0.0337 | 1.78 | 0.0026
10 | Cc1nc2ccc(-c3cc(=O)n4cc(N5CCCN(C)CC5)cc(C)c4n3)nn2n1 [Example 25, 9-methyl-7-(4-methyl-1,4-diazepan-1-yl)-2-(2-methyl-[1,2,4]triazolo[1,5-b]pyridazin-6-yl)pyrido[1,2-a]pyrimidin-4-one] | – | 0.226 | 1.89 | 0.0103
11 | Cc1nc2ccc(-c3cc(=O)n4cc(N5C[C@H]6CN(C)C[C@H]6C5)cc(C)c4n3)nn2n1 [Example 29, 7-[(3aS,6aR)-2-methyl-1,3,3a,4,6,6a-hexahydropyrrolo[3,4-c]pyrrol-5-yl]-9-methyl-2-(2-methyl-[1,2,4]triazolo[1,5-b]pyridazin-6-yl)pyrido[1,2-a]pyrimidin-4-one] | – | 0.0077 | 1.77 | 0.0008
12 | Cc1nc2ccc(-c3cc(=O)n4cc(N5CC6(CCNCC6)C5)cc(C)c4n3)nn2n1 [Example 35, 7-(2,7-diazaspiro[3.5]nonan-2-yl)-9-methyl-2-(2-methyl-[1,2,4]triazolo[1,5-b]pyridazin-6-yl)pyrido[1,2-a]pyrimidin-4-one] | – | 0.0082 | 1.9 | 0.0022
13 | Cc1nc2ccc(-c3cc(=O)n4cc(N5C[C@H](C)N[C@@H](C)C5)ccc4n3)nn2n1 [Example 42, 7-[(3S,5S)-3,5-dimethylpiperazin-1-yl]-2-(2-methyl-[1,2,4]triazolo[1,5-b]pyridazin-6-yl)pyrido[1,2-a]pyrimidin-4-one] | – | 0.0629 | 1.81 | 0.0083
14 | Cc1nc2ccc(-c3cc(=O)n4cc(N5CCNC(C)(C)C5)cc(C)c4n3)nn2n1 [Example 28, 7-(3,3-dimethylpiperazin-1-yl)-9-methyl-2-(2-methyl-[1,2,4]triazolo[1,5-b]pyridazin-6-yl)pyrido[1,2-a]pyrimidin-4-one] | – | 0.0353 | 1.79 | 0.0096
15 | Cc1nc2ncc(-c3cc(=O)n4cc(N5CCNC(C)(C)C5)ccc4n3)cn2n1 [Example 6, 7-(3,3-dimethylpiperazin-1-yl)-2-(2-methyl-[1,2,4]triazolo[1,5-a]pyrimidin-6-yl)pyrido[1,2-a]pyrimidin-4-one] | 0.201 | 2.15 | 1.7 | –
16 | Cc1nc2ccc(-c3cc(=O)n4cc(N5CCN6CCC[C@@H]6C5)ccc4n3)nn2n1 [Example 36, 7-[(8aR)-3,4,6,7,8,8a-hexahydro-1H-pyrrolo[1,2-a]pyrazin-2-yl]-2-(2-methyl-[1,2,4]triazolo[1,5-b]pyridazin-6-yl)pyrido[1,2-a]pyrimidin-4-one] | – | 0.0997 | 1.92 | 0.0158
17 | Cc1nc2ccc(-c3cc(=O)n4cc(N5CC[C@@H](N(C)C)C5)cc(C)c4n3)nn2n1 [Example 30, 7-[(3R)-3-(dimethylamino)pyrrolidin-1-yl]-9-methyl-2-(2-methyl-[1,2,4]triazolo[1,5-b]pyridazin-6-yl)pyrido[1,2-a]pyrimidin-4-one] | – | 0.0279 | 1.98 | 0.0065
18 | Cc1nc2ncc(-c3cc(=O)n4cc(N5CCNC6(CC6)C5)ccc4n3)cn2n1 [Example 13, 7-(4,7-diazaspiro[2.5]octan-7-yl)-2-(2-methyl-[1,2,4]triazolo[1,5-a]pyrimidin-6-yl)pyrido[1,2-a]pyrimidin-4-one] | 2.55 | 14.1 | 1.52 | –
19 | Cc1nc2ncc(-c3cc(=O)n4cc(N5CCN(C6COC6)CC5)ccc4n3)cn2n1 [Example 14, 7-[4-(oxetan-3-yl)piperazin-1-yl]2-(2-methyl-[1,2,4]triazolo[1,5-a]pyrimidin-6-yl)pyrido[1,2-a]pyrimidin-4-one] | 26.2 | > 31.6 | 1.35 | –
20 | Cc1nc2ccc(-c3cc(=O)n4cc(N5CCN6CCC[C@@H]6C5)cc(C)c4n3)nn2n1 [Example 34, 7-[(8aR)-3,4,6,7,8,8a-hexahydro-1H-pyrrolo[1,2-a]pyrazin-2-yl]-9-methyl-2-(2-methyl-[1,2,4]triazolo[1,5-b]pyridazin-6-yl)pyrido[1,2-a]pyrimidin-4-one] | – | 0.0191 | 1.8 | 0.0028
21 | Cc1nc2ncc(-c3cc(=O)n4cc(N5CC6CNC6C5)ccc4n3)cn2n1 (stereo not drawn) [Example 9, 7-(3,6-diazabicyclo[3.2.0]heptan-3-yl)-2-(2-methyl-[1,2,4]triazolo[1,5-a]pyrimidin-6-yl)pyrido[1,2-a]pyrimidin-4-one] | 0.283 | 2.88 | 1.9 | –
